Measured values from patent US20190010524A1, “BIOLOGICAL METHODS FOR PREPARING A FATTY DICARBOXYLIC ACID” (Verdezyne, Inc., priority 2012, published 2019).

What was measured:
strain sAA1082 = conditions: ethanol co-feed 0.7 g/L-h
Description: Fermentation medium (MM1) at pH 5.8 was filter sterilized and transferred to a sterile fermentation vessel. For the control, dextrose was used for both growth and co-feed. For the experimental fermentations, glycerol or xylose was substituted oh a g/g basis for dextrose in both the growth medium (MM1) and in the co-feed. Growth was initiated with an inoculum of pre-culture to an initial OD600nm=1.0 and growth conditions of 35° C., 1000 rpm, 1 vvm, pH 5.8. Growth continued for approximately 10-12 h at which point the conversion phase was initiated by a continuous feed of methyl laurate. Methyl laurate was fed at a rate of 0.7 g/L-h for the first 24 h; 1.2 g/L-h from 24 h to termination. In addition, a co-feed of ethanol was fed at a rate of 0.7 g/L-h. The ethanol feed-rate was reduced relative to what would normally be used for glucose (1.2 g/l-h), since ethanol is theoretically a more energy-rich compound. At induction, the temperature was changed to 30° C. and the pH was maintained at 6.0 by addition of 6N KOH.

[1] = test system: Candida tropicalis strain (sAA496); test: Fermentation of coconut oil to mixed diacids at different pH; format: cell-based; conditions: coconut oil 80 g/L, 140 hours
Description: Autoclaved virgin coconut oil was added to the vessel to a final concentration of 80 g/L. A partially beta-oxidation blocked Candida tropicalis strain (sAA496) was inoculated to an initial OD600nm of 1.0 with a 5% inoculum and grown under the following conditions: 30° C. with shaking at about 1200 rpm, 1 vvm, initial pH 6.5 and initial volume of 1.0 L. The effect of pH on the distribution of fatty acid chain lengths was determined by manipulating the pH of the fermentation media. The pH of the fermentation was either 1) increased to pH 7.5 and controlled at that pH for the entire run, 2) allowed to drop-naturally due to the growth of the culture before controlling at pH 6.0 for the rest of the run; or 3) allowed to drop naturally due to the growth of the culture before controlling at pH 4.5 for the rest of the run. Samples were collected for GC analysis after 140 hours of fermentation time.

strain sAA2178 [2] = test: Production of DDDA with glycerol or xylose substituted for dextrose as co-feed (Example 69); format: cell-based, Candida; conditions: co-feed 1.25 g/L-h; for production of DDDA: ethyl laurate feed
Description: A pre-culture of 80 mL SP92 in a 500 mL baffled flask with foam plugs was inoculated with 1.0 mL from a frozen glycerol stock of strain sAA2178 (beta-oxidation blocked strains plus amplified CPRB, CYP52A19, ADH2a, ADH8, and HFD2) and incubated for 24 h at 30° C. and 250 RPM. […] Growth was initiated with an inoculum of pre-culture to an/initial OD600nm=1.0 and growth conditions of 35° C., 1000 rpm, 1 vvm; pH 5.8. Growth continued for approximately 10-12 h at which point the conversion phase was initiated by a continuous feed of ethyl laurate. Ethyl laurate was fed at a rate of 0.75 g/L-h for the first 24 h; 1.28 g/L-h from 24 h to termination. In addition, a co-feed of either dextrose, glycerol or xylose was fed at a rate of 1.25 g/L-h for all fermentations.

[3] = test system: Candida strain ATTC 20962; test: Shake flask bioconversion of feedstocks of varying chain length (Example 72); format: cell-based; conditions: ethyl esters 1% v/v, alkanes 3% v/v
Description: (§1) The bioconversion tests in this Example were undertaken following a shake flask protocol. […] The YPD contained 10 g/L yeast extract, 20 g/L peptone, and 20 g/L dextrose. These cultures were then placed in a 30° C. shaking incubator at 250 rpm for 18 to 20 hours.
(§2) After this growth phase, these cultures were used to inoculate 350 ml of SP92-glycerol media dispensed into 10-250 ml wide mouth flasks in 35 ml aliquots for each strain. The SP92-glycerol media contained 6.7 g/L yeast nitrogen base, 3 g/L yeast extract, 3 g/L ammonium sulfate, 1 g/L potassium phosphate monobasic; 1 g/L potassium phosphate, dibasic, and 75 g/L glycerol (Picataggio S., et al., Biotechnology (NY) 1992 August; 10 (8):894-8). The cultures were then placed in a 30° C. shaking incubator at 300 rpm for 20 to 24 hours.
(§3) The cells were then centrifuged for 5 minutes at 3000 rpm and the supernatant discarded. The cells were resuspended in DCA3 medium supplemented with 1.0% triton-X100. DCA3 is a 0.3 M potassium phosphate buffer, pH 7.5 containing 6.7 g/L yeast nitrogen base and 50 g/L glycerol. Variations of DCA3 media recipes are known, non-limiting examples of which include the addition of dextrose and/or glycerol, the like or combinations thereof. DCA3 media, as referred to herein, can include dextrose and/or glycerol. After re-suspension, the OD600 nm for each culture was adjusted to a common OD (based on the available OD for the strain with the least growth) and 10 ml was transferred to pre-weighed 250 ml bottom baffled shake flasks. The flasks were then reweighed to determine the starting weight of the culture. The substrate to be converted was then added at 1% v/v for ethyl esters and 3% v/v for alkanes. The increased amount of alkanes added was due to their volatility to ensure that sufficient substrate remained in solution for bioconversion. The flasks were weighed once more to determine the exact amount of substrate added to each flask and were then placed, in a 30° C. shaking incubator at 300 rpm for 4 hours. Bioconversion tests for ethyl-stearate and ethyl palmitate were performed at 35° C. due to melting point limitations for these substrates.
(§4) After 48 hours, the flasks were weighed once more to determine the weight of the final culture. The cultures were mixed well by swirling and 1 ml was transferred to a pre-weighed 15 ml falcon tube containing 0.8 ml of 6N HCl. The tube was weighed to determine the density of the final culture and this number used to determine the culture volume present at the final time point. Samples were submitted to analytical for analysis by GC.

sAA1082 = test: as above; format: cell-based, Candida; conditions: for Feedstock Yield (g diacid/g added feedstock) sAA-1082: shake flask, ethyl esters 1% v/v, alkanes 3% v/v
Description: as §1, §2, §3, §4

sAA2178 = test: as above; format: cell-based, Candida; conditions: for Feedstock Yield (g diacid/g added feedstock) sAA-2178: shake flask, ethyl esters 1% v/v, alkanes 3% v/v
Description: as §1, §2, §3, §4

strain sAA2178 [4] = test: Production of DDDA using sucrose or dextrose as co-feed (Example 68); format: cell-based, Candida; conditions: co-feed 0.9 g/L-h
Description: A pre-culture of 80 mL SP92 in a 500 mL baffled flask with foam plugs was inoculated with 1.0 mL from a frozen glycerol stock of strain sAA2178 (beta-oxidation blocked strains plus amplified CPRB, CYP52A19, ADH2a, ADH8, and HFD2) and incubated for 24 h at 30° C. and 250 RPM. […] Growth was initiated an inoculum of pre-culture to an initial OD600nm=1.0 and growth conditions of 35° C., 1000 rpm, 1 vvm, pH 5.8. Growth continued for approximately 10-12 h at which point the conversion phase was initiated by a continuous feed of ethyl laurate. […] The data from three fermentations were averaged for the comparison.

| SMILES | HFA levels (strain sAA2178 [2]) [g/L] | lauric acid accumulated (strain sAA2178 [2]) [g/L] | production of DDDA (strain sAA2178 [2]) [g/L-h] | Feedstock Yield (g diacid/g added feedstock) ATTC-20962 [3] | % improvement over ATTC 20962 sAA-1082 (sAA1082) [%] | Feedstock Yield (g diacid/g added feedstock) sAA-1082 (sAA1082) | % improvement over ATTC 20962 sAA-2178 (sAA2178) [%] | Feedstock Yield (g diacid/g added feedstock) sAA-2178 (sAA2178) | also measured |
| --- | --- | --- | --- | --- | --- | --- | --- | --- | --- |
| CCO [ethanol] | – | – | – | – | – | – | – | – | accumulation of HFA (strain sAA1082): 5.3 g/L; accumulation of lauric acid (strain sAA1082): 8.5 g/L; accumulation of methyl laurate (strain sAA1082): 38 g/L; DDDA productivity (strain sAA1082; methyl laurate feed): 0.446 gL |
| O=C(O)CCCCCCCCCCC(=O)O [C12 Diacid, dodecanedioic acid] | – | – | – | – | – | – | – | – | Diacid composition (fraction of total diacids) ([1]; pH 4.5): 0.00; Diacid composition (fraction of total diacids) ([1]; pH 6.0): 0.03; Diacid composition (fraction of total diacids) ([1]; pH 7.5): 0.16 |
| OCC(O)CO [glycerol] | 0.33 | 12.28 | 0.327 | – | – | – | – | – | production of DDDA, less than with dextrose (strain sAA2178 [2]): about 60% |
| CCCCCCCCCCCCCCCCC [n-heptadecane] | – | – | – | 0.473 g diacid/g added feedstock | 17.3 | 0.555 g diacid/g added feedstock | 8.6 | 0.514 g diacid/g added feedstock | – |
| CCCCCCCCCCC [n-Undecane] | – | – | – | 0.312 g diacid/g added feedstock | 23.7 | 0.386 g diacid/g added feedstock | 29.3 | 0.403 g diacid/g added feedstock | – |
| O=C[C@H](O)[C@@H](O)[C@H](O)[C@H](O)CO [dextrose] | 1.24 | 0.37 | 0.825 | – | – | – | – | – | lauric acid accumulated (strain sAA2178 [4]): 0.52 g/L; production of DDDA (strain sAA2178 [4]; ethyl laurate feed, three fermentations averaged): 0.872 g/L-h |
| O=C[C@H](O)[C@@H](O)[C@H](O)CO [xylose] | 0.20 | 19.04 | 0.211 | – | – | – | – | – | production of DDDA, less than with dextrose (strain sAA2178 [2]): about 75% |
| CCCCCCCCCCCCCCCCCC(=O)OCC [Ethyl stearate] | – | – | – | 0.074 g diacid/g added feedstock | 14.5 | 0.085 g diacid/g added feedstock | 92.7 | 0.143 g diacid/g added feedstock | – |
| CCCCCCCCCCCCC [n-Tridecane] | – | – | – | 0.680 g diacid/g added feedstock | 38.3 | 0.941 g diacid/g added feedstock | 27.7 | 0.868 g diacid/g added feedstock | – |
